Source: patent US20070054859A1, “Estrogen receptor-related receptor alpha (ERRalpha) and cartilage formation” (priority 2001, published 2007)

Legend:
ERRα [1] = target: T1, ERRα (Homo sapiens, UniProt P11474); conditions: cited from earlier work
T1 sequence (P11474 1-423): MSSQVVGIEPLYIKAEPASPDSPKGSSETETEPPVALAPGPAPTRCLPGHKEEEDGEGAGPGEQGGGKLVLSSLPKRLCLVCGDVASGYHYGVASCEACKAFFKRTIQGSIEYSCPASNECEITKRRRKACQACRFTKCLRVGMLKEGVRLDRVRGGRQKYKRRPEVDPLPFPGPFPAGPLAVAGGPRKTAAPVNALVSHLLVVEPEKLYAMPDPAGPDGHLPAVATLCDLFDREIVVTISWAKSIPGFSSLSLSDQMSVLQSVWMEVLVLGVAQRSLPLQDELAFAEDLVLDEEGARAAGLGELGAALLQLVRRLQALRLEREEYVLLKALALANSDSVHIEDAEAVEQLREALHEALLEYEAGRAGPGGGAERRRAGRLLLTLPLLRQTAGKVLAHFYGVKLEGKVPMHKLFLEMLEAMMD

ERRα mRNA = ERRα mRNA levels in C5.18 cultures by semi-quantitative RT-PCR, normalised against L32; type: cell-based, rat; conditions: C5.18 cultures without FBS, 10^−9M E2 versus 0.01% ethanol vehicle, day 2; FIG. 8 Panel B
Method: Semi-quantitative RT-PCR was carried out as described in Bonnelye et al. (2001), over the proliferation/differentiation time course of C5.18 cultures treated with Dex. Days 3 and 6 were within the proliferation phase and days 11, 15 and 21 were within the differentiation stage. ERRα expression was normalised against that of the ribosomal probe L32. For comparison, mRNA levels for three chondroblast markers, type II collagen, aggrecan and link protein, were also assessed, normalised against L32.
C5.18 cells were grown in medium with (+) and without (−) fetal bovine serum (FBS). ERRα mRNA levels were determined by semi-quantitative RT-PCR and normalised against ribosomal probe L32.
Similar C5.18 cultures were grown without FBS but in the presence of estrogen (10^−9M E2) or vehicle (0.01% ethanol) (VEH) and mRNA levels were determined as above.

ERRα [2] = target: T1, ERRα; conditions: Yang et al. (1999); Tremblay et al. (2001a); cited from earlier work

Compound: estrogen
- binding to ERRα (ERRα [1]): does not bind
- ERRα mRNA levels (ERRα mRNA): significantly increased

Compound: ClC1=C(Cl)C2(Cl)C3C(Cl)C(Cl)CC3C1(Cl)C2(Cl)Cl (stereo not drawn) [chlordane]
- ERRα antagonist activity (ERRα [2]): antagonise ERRα activity
